Experiments:
[1] = biological target: T1, 3-keto-steroid reductase/17-beta-hydroxysteroid dehydrogenase 7 (Homo sapiens) (UniProt P56937); details: HEK293, at 3 µM
T1 sequence (whole entry): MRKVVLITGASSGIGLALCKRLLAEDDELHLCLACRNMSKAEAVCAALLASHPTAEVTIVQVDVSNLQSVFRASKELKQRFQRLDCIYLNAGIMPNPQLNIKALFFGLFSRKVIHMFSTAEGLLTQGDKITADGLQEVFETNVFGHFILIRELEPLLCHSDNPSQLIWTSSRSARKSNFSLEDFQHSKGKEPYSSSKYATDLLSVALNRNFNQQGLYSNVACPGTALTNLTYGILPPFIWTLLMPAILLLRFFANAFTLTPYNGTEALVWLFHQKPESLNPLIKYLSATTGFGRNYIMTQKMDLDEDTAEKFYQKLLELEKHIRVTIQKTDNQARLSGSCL
Description: Inhibition of human 17beta-HSD7 expressed in HEK293 cells assessed as inhibition of reduction of [14C]estrone into [14C]estradiol at 3 uM after 7 hrs

[2] = biological target: T1, 3-keto-steroid reductase/17-beta-hydroxysteroid dehydrogenase 7 (Homo sapiens); details: HEK293, at 0.3 µM
Description: Inhibition of human 17beta-HSD7 expressed in HEK293 cells assessed as inhibition of reduction of [14C]estrone into [14C]estradiol at 0.3 uM after 7 hrs

SMILES	inhibition [1] [%]	inhibition [2] [%]
COC(=O)c1cc2c(cc1O)CC[C@@H]1[C@@H]2CC[C@@]2(C)[C@H]1CC[C@@]21CCC(C)(C)C(=O)O1	30	21.1
C#C[C@]1(O)CC[C@H]2[C@@H]3CCc4cc(O)ccc4[C@H]3CC[C@@]21C	3.4	8.3
C[C@]12CCC(=O)C=C1CC[C@@H]1[C@@H]2CC[C@@]2(C)[C@H]1CC[C@]2(O)C(=O)CO	0	9.8
C[C@]12CC[C@@H]3c4ccccc4CC[C@H]3[C@@H]1CC[C@@]21CCCC(=O)O1	4.7	6.1
CC1(C)CC[C@@]2(CC[C@H]3[C@@H]4CCc5cc(O)c(C(N)=O)cc5[C@H]4CC[C@@]32C)OC1=O	23.8	7.9
C[C@]12C[C@H](O)[C@H]3[C@@H](CCC4=CC(=O)CC[C@@]43C)[C@@H]1CC[C@@H]2C(=O)CO	14.9	8.1
CC1(C)CC[C@@]2(CC[C@H]3[C@@H]4CCc5cc(C(=O)O)ccc5[C@H]4CC[C@@]32C)OC1=O	20.9	28.1
COc1ccc(N(C(=O)C(C)C)[C@H]2CC[C@H]3[C@@H]4CC[C@H]5N(C)C(=O)CC[C@]5(C)[C@H]4CC[C@]23C)cc1	99.8	41.1
CC1(C)CC[C@@]2(CC[C@H]3[C@@H]4CCc5cc(OS(=O)(=O)c6ccccc6)ccc5[C@H]4CC[C@@]32C)OC1=O	29.5	11.7
C[C@]12CC[C@@H]3c4ccc(S(N)(=O)=O)cc4CC[C@H]3[C@@H]1CCC2=O	6.1	4.2
CN1C(=O)C=C[C@]2(C)[C@H]3CC[C@]4(C)[C@@H](N(C(=O)NC5CCCCC5)C5CC5)CC[C@H]4[C@@H]3CC[C@@H]12	0.8	8.2
COCCOc1ccc2c(c1)CC[C@@H]1[C@@H]2CC[C@@]2(C)[C@H]1CC[C@@]21CCC(C)(C)C(=O)O1	52.3	23.8
O=c1c(-c2ccc(O)cc2)coc2cc(O)cc(O)c12	0	0
CC(C)(C)NC(=O)[C@H]1CC[C@H]2[C@@H]3CC[C@H]4NC(=O)C=C[C@]4(C)[C@H]3CC[C@]12C	5.4	3.7
CCCNC(=O)N(C1CC1)[C@H]1CC[C@H]2[C@@H]3CC[C@H]4N(C)C(=O)CC[C@]4(C)[C@H]3CC[C@]12C	41.5	12.9
C[C@]12CC[C@@H](O)C[C@H]1CC[C@@H]1[C@@H]2CC[C@]2(C)[C@@H](O)CC[C@@H]12	6	2.9
CCS(=O)(=O)Oc1ccc2c(c1)CC[C@@H]1[C@@H]2CC[C@@]2(C)[C@H]1CC[C@@]21CCC(C)(C)C(=O)O1	60.9	21
CCN(C(=O)c1ccccc1)[C@H]1CC[C@H]2[C@@H]3CC[C@H]4N(C)C(=O)CC[C@]4(C)[C@H]3CC[C@]12C	99.4	63.4
C[C@]12CC[C@@H]3c4ccc(O)cc4CC[C@H]3[C@@H]1CC[C@@]21CCCC(=O)O1	13.8	0
CC(=O)[C@H]1CC[C@H]2[C@@H]3CCC4=CC(=O)CC[C@]4(C)[C@H]3CC[C@]12C	19.1	7.3
CCCN(CC1C2CC3CC(C2)CC1C3)C[C@@]1(O)CC[C@@]2(C)[C@@H](CC[C@@H]3[C@@H]2CC[C@]2(C)C(=O)CC[C@@H]32)C1 (stereo partly specified)	18.8	29

SMILES	inhibition [1] [%]	inhibition [2] [%]
CCC1(CC)CC[C@@]2(CC[C@H]3[C@@H]4CCc5cc(O)ccc5[C@H]4CC[C@@]32C)OC1=O	39.6	15.2
CN1C(=O)CC[C@]2(C)[C@H]3CC[C@]4(C)[C@@H](Nc5ccc([N+](=O)[O-])cc5)CC[C@H]4[C@@H]3CC[C@@H]12	88	40.9
CCCNC(=O)N(C)[C@H]1CC[C@H]2[C@@H]3CC[C@H]4N(C)C(=O)CC[C@]4(C)[C@H]3CC[C@]12C	2.2	2.7
O=c1oc2cc(O)ccc2c2oc3cc(O)ccc3c12	2.3	5.5
CCCN(C=O)[C@H]1CC[C@H]2[C@@H]3CC[C@H]4N(C)C(=O)CC[C@]4(C)[C@H]3CC[C@]12C	56.3	21.7
CC/C(=C(\c1ccccc1)c1ccc(OCCN(C)C)cc1)c1ccccc1	3.2	8.9
CC1=C(c2ccc(OC(=O)C(C)(C)C)cc2)[C@H](c2ccc(OCCN3CCCCC3)cc2)Oc2cc(OC(=O)C(C)(C)C)ccc21	0	0
CC1(C)CC[C@@]2(CC[C@H]3[C@@H]4CCc5cc(C(N)=S)ccc5[C@H]4CC[C@@]32C)OC1=O	60.9	18.5
CC1CC[C@@]2(CC[C@H]3[C@@H]4CCc5cc(O)ccc5[C@H]4CC[C@@]32C)OC1=O (stereo partly specified)	32.1	14.4
COC(=O)c1ccc2c(c1)CC[C@@H]1[C@@H]2CC[C@@]2(C)[C@H]1CC[C@@]21CCC(C)(C)C(=O)O1	49	15.1
COc1cc2c(cc1S(N)(=O)=O)CC[C@@H]1[C@@H]2CC[C@]2(C)C(=O)CC[C@@H]12	10.3	6.4
CCCC1CC[C@@]2(CC[C@H]3[C@@H]4CCc5cc(O)ccc5[C@H]4CC[C@@]32C)OC1=O (stereo partly specified)	47.1	15.8
C[C@]12CC[C@H]3C(=CCc4cc(O)ccc43)[C@@H]1CC[C@@H]2O	8.8	12.6
CCCCCN(C(=O)CCCC)[C@H]1CC[C@H]2[C@@H]3CC[C@H]4N(C)C(=O)CC[C@]4(C)[C@H]3CC[C@]12C	79.7	27.3
C[C@]12CC[C@H](O)CC1=CC[C@@H]1[C@@H]2CC[C@]2(C)C(=O)CC[C@@H]12	12.1	5.7
CC1(C)CC[C@@]2(CC[C@H]3[C@@H]4CC[C@H]5NC(=O)C=C[C@]5(C)[C@H]4CC[C@@]32C)OC1=O	39.6	5
CN1C(=O)CC[C@]2(C)[C@H]3CC[C@]4(C)[C@@H](Nc5ccc([N+](=O)[O-])c(C(F)(F)F)c5)CC[C@H]4[C@@H]3CC[C@@H]12	100	66.1
CCOc1ccc2c(c1)CC[C@@H]1[C@@H]2CC[C@@]2(C)[C@H]1CC[C@@]21CCC(C)(C)C(=O)O1	29.3	20.6
CC1(C)CC[C@@]2(CC[C@H]3[C@@H]4CCc5cc(O)c(I)cc5[C@H]4CC[C@@]32C)OC1=O	24.9	10
O=C(c1ccc(OCN2CCCCC2)cc1)c1c(-c2ccc(O)cc2)sc2cc(O)ccc12	0	0
CN1C(=S)CC[C@]2(C)[C@H]3CC[C@@]4(C)[C@@H](CC[C@@]45CCCC(=S)O5)[C@@H]3CC[C@@H]12	36.5	5.3

SMILES	inhibition [1] [%]	inhibition [2] [%]
CCCCCCN(C=O)[C@H]1CC[C@H]2[C@@H]3CC[C@H]4N(C)C(=O)CC[C@]4(C)[C@H]3CC[C@]12C	100	94.1
C[C@@]12C=CC[C@H]1[C@@H]1CCc3cc(O)ccc3[C@H]1CC2	5.8	7.5
CN1C(=O)CC[C@]2(C)[C@H]3CC[C@]4(C)[C@@H](N(C(=O)NC5CCCCC5)C5CC5)CC[C@H]4[C@@H]3CC[C@@H]12	54.7	8.4
C=CC[C@@]1(O)CC[C@H]2[C@@H]3CC[C@H]4N(C)C(=O)CC[C@]4(C)[C@H]3CC[C@@]21C	4.9	13.3
C[C@]12CCC(=O)N[C@@H]1CC[C@@H]1[C@@H]2CC[C@]2(C)[C@@H](N(C(=O)c3ccccc3)c3ccccc3)CC[C@@H]12	64.1	24
C[C@]12CC[C@@H]3c4ccc(O)cc4C[C@@H](CCCCCCCCC[S+]([O-])CCCC(F)(F)C(F)(F)F)[C@H]3[C@@H]1CC[C@@H]2O (stereo partly specified)	15.7	
CN1C(=O)CC[C@]2(C)[C@H]3CC[C@]4(C)[C@@H](N(C=O)Cc5ccccc5)CC[C@H]4[C@@H]3CC[C@@H]12	77.6	31.6
C[C@]12CC[C@@H]3c4ccc(O)cc4CC[C@H]3[C@@H]1C[C@@H](O)[C@@H]2O	29.5	
C[C@]12CCC(=O)C[C@@H]1CC[C@@H]1[C@@H]2CC[C@]2(C)[C@@H](O)CC[C@@H]12	49.6	
CC1=C(c2ccc(O)cc2)[C@H](c2ccc(OCCN3CCCCC3)cc2)Oc2cc(O)ccc21	4.2	3.1
CC(=O)[C@@]1(O)CC[C@H]2[C@@H]3CCC4=CC(=O)CC[C@]4(C)[C@H]3CC[C@@]21C	20.8	
C[C@]12CCc3c(ccc4cc(O)ccc34)[C@@H]1CCC2=O	14.2	
C[C@]12CC[C@H](O)C[C@@H]1CC[C@@H]1[C@@H]2CC[C@]2(C)C(=O)CC[C@@H]12	8.1	
C[C@]12CC[C@@H]3c4ccc(O)cc4CC[C@H]3[C@@H]1CC[C@H]2O	0	
C[C@]12CCC(=O)C=C1CC[C@@H]1[C@@H]2[C@@H](O)C[C@@]2(C)[C@H]1CC[C@]2(O)C(=O)CO	10.3	
CC(=O)[C@@]1(O)CC[C@H]2[C@@H]3CC[C@H]4CC(=O)CC[C@]4(C)[C@H]3CC[C@@]21C	14.5	
C[C@]12CC[C@H]3[C@@H](CC=C4C[C@@H](O)CC[C@@]43C)[C@@H]1CC[C@@H]2O	29.7	
CN(C)C(=O)CCCCCCCCCCC1Cc2cc(O)ccc2[C@H]2CC[C@]3(C)[C@@H](O)[C@H](Cl)C[C@H]3[C@H]12 (stereo partly specified)	18.5	
C[C@]12CCC(=O)C[C@@H]1CC[C@@H]1[C@@H]2[C@@H](O)C[C@@]2(C)[C@H]1CC[C@]2(O)C(=O)CO	17.2	
CC(=O)[C@H]1CC[C@H]2[C@@H]3CC=C4C[C@@H](O)CC[C@]4(C)[C@H]3CC[C@]12C	13.2	

From ChEMBL document CHEMBL1154295, “Potent and selective steroidal inhibitors of 17beta-hydroxysteroid dehydrogenase type 7, an enzyme that catalyzes the reduction of the key hormones estrone and dihydrotestosterone” (J Med Chem, 2009)
